Our source for the inhibition of growth values is ChEMBL document CHEMBL4376838, “Discovery of Novel Celastrol Derivatives as Hsp90-Cdc37 Interaction Disruptors with Antitumor Activity” (J Med Chem, 2019).

The experiment has as its system A549. The experiment is described as follows: Antiproliferative activity against human A549 cells assessed as inhibition of cell growth at 1.5 uM incubated for 48 hrs by MTT assay relative to control. It counts as functional. The conditions noted are these: A549, 48 h, read-out: GI.
Consider `CC1=C(O)C(=O)C=C2C1=CC=C1[C@@]2(C)CC[C@@]2(C)[C@@H]3C[C@](C)(C(=O)OCCOC(=O)/C=C/c4ccc(F)cc4)CC[C@]3(C)CC[C@]12C`, for which the inhibition of growth at 1.5 µM worked out at 27.7%.

As for `CC1=C(O)C(=O)C=C2C1=CC=C1[C@@]2(C)CC[C@@]2(C)[C@@H]3C[C@](C)(C(=O)OCCCCOC(=O)/C=C(\C#N)c4ccc(F)cc4)CC[C@]3(C)CC[C@]12C`, the inhibition of growth at 1.5 µM came out at 32.1%.

Turning to `COc1ccc(/C=C/C(=O)OCCOC(=O)[C@]2(C)CC[C@]3(C)CC[C@]4(C)C5=CC=C6C(=CC(=O)C(O)=C6C)[C@]5(C)CC[C@@]4(C)[C@@H]3C2)cc1`, the inhibition of growth at 1.5 µM was 35.3%.

As for `CC1=C(O)C(=O)C=C2C1=CC=C1[C@@]2(C)CC[C@@]2(C)[C@@H]3C[C@](C)(C(=O)OCCOC(=O)/C=C(\C#N)c4ccc(C(F)(F)F)cc4)CC[C@]3(C)CC[C@]12C`, the inhibition of growth at 1.5 µM turned out to be 33.3%.

With `CC1=C(O)C(=O)C=C2C1=CC=C1[C@@]2(C)CC[C@@]2(C)[C@@H]3C[C@](C)(C(=O)OCCCCOC(=O)/C=C/c4ccc(C)cc4)CC[C@]3(C)CC[C@]12C`, the inhibition of growth at 1.5 µM is 19.9%.

With `CC1=C(O)C(=O)C=C2C1=CC=C1[C@@]2(C)CC[C@@]2(C)[C@@H]3C[C@](C)(C(=O)OCCOC(=O)/C=C(\C#N)c4ccc(C)cc4)CC[C@]3(C)CC[C@]12C`, the inhibition of growth at 1.5 µM worked out at 20.4%.

Take `COc1ccc(/C=C(\C#N)C(=O)OCCCCOC(=O)[C@]2(C)CC[C@]3(C)CC[C@]4(C)C5=CC=C6C(=CC(=O)C(O)=C6C)[C@]5(C)CC[C@@]4(C)[C@@H]3C2)cc1`: the inhibition of growth at 1.5 µM turned out to be 3.07%.

As for `COc1ccc(/C=C/C(=O)OCCCOC(=O)[C@]2(C)CC[C@]3(C)CC[C@]4(C)C5=CC=C6C(=CC(=O)C(O)=C6C)[C@]5(C)CC[C@@]4(C)[C@@H]3C2)cc1`, the inhibition of growth at 1.5 µM turned out to be 34.1%.

`CC1=C(O)C(=O)C=C2C1=CC=C1[C@@]2(C)CC[C@@]2(C)[C@@H]3C[C@](C)(C(=O)OCCCCOC(=O)/C(C#N)=C/c4ccccc4)CC[C@]3(C)CC[C@]12C`: the inhibition of growth at 1.5 µM came to 16.2%.

For `CC1=C(O)C(=O)C=C2C1=CC=C1[C@@]2(C)CC[C@@]2(C)[C@@H]3C[C@](C)(C(=O)OCCCCOC(=O)/C=C(\C#N)c4ccc(C(F)(F)F)cc4)CC[C@]3(C)CC[C@]12C`, the inhibition of growth at 1.5 µM was determined as 18.3%.

For the compound `CC1=C(O)C(=O)C=C2C1=CC=C1[C@@]2(C)CC[C@@]2(C)[C@@H]3C[C@](C)(C(=O)OCCCOC(=O)/C=C/c4ccc(C)cc4)CC[C@]3(C)CC[C@]12C`, the inhibition of growth at 1.5 µM was 29.1%.

As to `CC1=C(O)C(=O)C=C2C1=CC=C1[C@@]2(C)CC[C@@]2(C)[C@@H]3C[C@](C)(C(=O)OCCOC(=O)/C=C/c4ccc(C(F)(F)F)cc4)CC[C@]3(C)CC[C@]12C`, the inhibition of growth at 1.5 µM came to 26%.

Turning to `CC1=C(O)C(=O)C=C2C1=CC=C1[C@@]2(C)CC[C@@]2(C)[C@@H]3C[C@](C)(C(=O)OCCCOC(=O)/C(C#N)=C/c4ccc(C)cc4)CC[C@]3(C)CC[C@]12C`, the inhibition of growth at 1.5 µM came out at 34.7%.

With `CC1=C(O)C(=O)C=C2C1=CC=C1[C@@]2(C)CC[C@@]2(C)[C@@H]3C[C@](C)(C(=O)OCCOC(=O)/C(C#N)=C/c4ccc(C)cc4)CC[C@]3(C)CC[C@]12C`, the inhibition of growth at 1.5 µM was determined as 29.9%.

For `CC1=C(O)C(=O)C=C2C1=CC=C1[C@@]2(C)CC[C@@]2(C)[C@@H]3C[C@](C)(C(=O)OCCCOC(=O)/C(C#N)=C/c4ccccc4)CC[C@]3(C)CC[C@]12C`, the inhibition of growth at 1.5 µM amounted to 19.1%.

Consider `CC1=C(O)C(=O)C=C2C1=CC=C1[C@@]2(C)CC[C@@]2(C)[C@@H]3C[C@](C)(C(=O)OCCCCOC(=O)/C=C/c4ccc(C(F)(F)F)cc4)CC[C@]3(C)CC[C@]12C`, for which the inhibition of growth at 1.5 µM is 6.19%.

`CC1=C(O)C(=O)C=C2C1=CC=C1[C@@]2(C)CC[C@@]2(C)[C@@H]3C[C@](C)(C(=O)OCCCOC(=O)/C(C#N)=C/c4ccc(C(F)(F)F)cc4)CC[C@]3(C)CC[C@]12C`: the inhibition of growth at 1.5 µM was found to be 19.4%.

Consider `COc1ccc(/C=C/C(=O)OCCCCOC(=O)[C@]2(C)CC[C@]3(C)CC[C@]4(C)C5=CC=C6C(=CC(=O)C(O)=C6C)[C@]5(C)CC[C@@]4(C)[C@@H]3C2)cc1`, for which the inhibition of growth at 1.5 µM came out at 20.6%.

As for `COc1ccc(/C(C#N)=C/C(=O)OCCCCOC(=O)[C@]2(C)CC[C@]3(C)CC[C@]4(C)C5=CC=C6C(=CC(=O)C(O)=C6C)[C@]5(C)CC[C@@]4(C)[C@@H]3C2)cc1`, the inhibition of growth at 1.5 µM is 9.57%.

Turning to `CC1=C(O)C(=O)C=C2C1=CC=C1[C@@]2(C)CC[C@@]2(C)[C@@H]3C[C@](C)(C(=O)OCCOC(=O)/C=C/c4ccc(C)cc4)CC[C@]3(C)CC[C@]12C`, the inhibition of growth at 1.5 µM was 28.6%.

As for `CC1=C(O)C(=O)C=C2C1=CC=C1[C@@]2(C)CC[C@@]2(C)[C@@H]3C[C@](C)(C(=O)OCCCOC(=O)/C=C/c4ccc(C(F)(F)F)cc4)CC[C@]3(C)CC[C@]12C`, the inhibition of growth at 1.5 µM was 37.6%.

As to `CC1=C(O)C(=O)C=C2C1=CC=C1[C@@]2(C)CC[C@@]2(C)[C@@H]3C[C@](C)(C(=O)OCCOC(=O)/C(C#N)=C/c4ccccc4)CC[C@]3(C)CC[C@]12C`, the inhibition of growth at 1.5 µM worked out at 24.3%.

Turning to `COc1ccc(/C=C(\C#N)C(=O)OCCCOC(=O)[C@]2(C)CC[C@]3(C)CC[C@]4(C)C5=CC=C6C(=CC(=O)C(O)=C6C)[C@]5(C)CC[C@@]4(C)[C@@H]3C2)cc1`, the inhibition of growth at 1.5 µM worked out at 18.6%.

Turning to `CC1=C(O)C(=O)C=C2C1=CC=C1[C@@]2(C)CC[C@@]2(C)[C@@H]3C[C@](C)(C(=O)OCCCOC(=O)/C(C#N)=C/c4ccc(F)cc4)CC[C@]3(C)CC[C@]12C`, the inhibition of growth at 1.5 µM was found to be 25%.

As to `CC1=C(O)C(=O)C=C2C1=CC=C1[C@@]2(C)CC[C@@]2(C)[C@@H]3C[C@](C)(C(=O)OCCCCOC(=O)/C(C#N)=C/c4ccc(C(F)(F)F)cc4)CC[C@]3(C)CC[C@]12C`, the inhibition of growth at 1.5 µM was 7.85%.

Consider `CC1=C(O)C(=O)C=C2C1=CC=C1[C@@]2(C)CC[C@@]2(C)[C@@H]3C[C@](C)(C(=O)OCCCOC(=O)/C=C(\C#N)c4ccc(C(F)(F)F)cc4)CC[C@]3(C)CC[C@]12C`, for which the inhibition of growth at 1.5 µM is 24.5%.

For `CC1=C(O)C(=O)C=C2C1=CC=C1[C@@]2(C)CC[C@@]2(C)[C@@H]3C[C@](C)(C(=O)OCCCCOC(=O)/C=C/c4ccc(F)cc4)CC[C@]3(C)CC[C@]12C`, the inhibition of growth at 1.5 µM stood at 14.7%.

For `CC1=C(O)C(=O)C=C2C1=CC=C1[C@@]2(C)CC[C@@]2(C)[C@@H]3C[C@](C)(C(=O)OCCCCOC(=O)/C=C/c4ccccc4)CC[C@]3(C)CC[C@]12C`, the inhibition of growth at 1.5 µM was 13.3%.

As for `CC1=C(O)C(=O)C=C2C1=CC=C1[C@@]2(C)CC[C@@]2(C)[C@@H]3C[C@](C)(C(=O)OCCCCOC(=O)/C(C#N)=C/c4ccc(C)cc4)CC[C@]3(C)CC[C@]12C`, the inhibition of growth at 1.5 µM amounted to 16.5%.

`CC1=C(O)C(=O)C=C2C1=CC=C1[C@@]2(C)CC[C@@]2(C)[C@@H]3C[C@](C)(C(=O)OCCCOC(=O)/C=C/c4ccccc4)CC[C@]3(C)CC[C@]12C`: the inhibition of growth at 1.5 µM came out at 33.2%.

In the case of `CC1=C(O)C(=O)C=C2C1=CC=C1[C@@]2(C)CC[C@@]2(C)[C@@H]3C[C@](C)(C(=O)OCCOC(=O)/C(C#N)=C/c4ccc(C(F)(F)F)cc4)CC[C@]3(C)CC[C@]12C`, the inhibition of growth at 1.5 µM came to 16%.

For `CC1=C(O)C(=O)C=C2C1=CC=C1[C@@]2(C)CC[C@@]2(C)[C@@H]3C[C@](C)(C(=O)OCCCOC(=O)/C=C(\C#N)c4ccc(C)cc4)CC[C@]3(C)CC[C@]12C`, the inhibition of growth at 1.5 µM was 21.6%.
